Source: patent publication US8389679B2, “Targeted antimicrobial moieties” (priority 2009, dated 2013)
“Also recorded” adds a separate entry of the source. Read-outs that look alike come from different tables or passages of the source. Where a SMILES comes first, the peptide text is derived from it. Where no end group is shown, it is not given here.

Key:
S. mutans [1] = tested on: S. mutans
S. mutans [2] = assay: Microbial population shift assay (mixed planktonic culture); assay type: cell-based, Streptococcus mutans; details: 10 μM peptide, 24 h, FIG. 16
Experimental: (§1) FIG. 16 illustrates the selective activity of dual-targeted and single-targeted MH-STAMPs in mixed culture. […] After incubation, cfu/mL of remaining constituent species were quantitated after plating to selective media. * indicates under 200 surviving cfu/mL recovered.
(§2) Peptide (10 μM) or mock-treatment (1×PBS) was then added and samples were incubated at 37° C. for 24 h under anaerobic conditions (80% N2, 15% CO2, 5% H2). […] Plates were then incubated 37° C. under aerobic conditions (TH plates were incubated anaerobically) and colonies counted after 24 h to determine survivors. […] Gram stains and direct microscopic observation (from select isolated colonies) were undertaken to confirm species identity (data not shown). The detection limit of the assay was 200 cfu/mL.

S. epidermidis [3] = assay: as above; assay type: cell-based, Staphylococcus epidermidis; details: 10 μM peptide, 24 h, FIG. 16
Experimental: as §1, §2

E. coli [4] = assay: as above; assay type: cell-based, Escherichia coli; details: 10 μM peptide, 24 h, FIG. 16
Experimental: as §1, §2

P. aeruginosa [5] = assay: as above; assay type: cell-based, Pseudomonas aeruginosa; details: 10 μM peptide, 24 h, FIG. 16
Experimental: as §1, §2

S. mutans [6] = assay: Post-antibiotic effect assay (growth retardation in monoculture); details: peptide for 10 min, then fresh medium, FIG. 15A
Experimental: (§3) Agent was then removed and fresh media returned. Culture recovery was measured over time (OD600). Plots represent the average of at least 3 independent experiments with standard deviations.
(§4) The activity and selectivity of MH-STAMPs after a 10 min incubation was determined by growth retardation experiments against targeted and untargeted bacteria in monocultures, as described previously [10, 11]. Cells from overnight cultures were diluted to ˜5×10^6 cfu/mL in MH (or TH with 1% sucrose for S. mutans), normalized by OD600 0.05-0.1 and seeded to 96-well plates. Cultures were then grown under the appropriate conditions for 2 h (3 h for S. mutans) prior to the addition of peptides for 10 min. Plates were then centrifuged at 3000×g for 5 min, the supernatants discarded, fresh medium returned (MH or TH without sucrose for S. mutans), and incubation resumed. Bacterial growth after treatment was then monitored over time by OD600.

S. mutans biofilms = assay: Binding of targeting peptides by fluorescent microscopy; set-up: species or system Streptococcus mutans; details: 25 μM peptide, 5 min; data not shown
Experimental: Binding of Targeting Peptides. The binding of peptides 1—2, 1—3, 1—4, 1—6, 2—1, and 3—1 was assessed by fluorescent microscopy. S. mutans UA159 was grown overnight and diluted 1:5000 in fresh TH with 1% sucrose before seeding to 96-well plates (flat bottom). Biofilms were grown 24 h and the spent medium replaced with 1×PBS containing 25 μM peptide. After 5 min incubation at room temperature, the supernatants were removed and the biofilms washed 2× with 1×PBS and imaged by bright-field and fluorescence microscopy (Nikon E400). Digital images were collected and analyzed for semiquantitative binding assessments with the manufacturers supplied software (SPOT, Diagnostics) (6).

E. coli [7] = assay: Post-antibiotic effect assay (growth retardation in monoculture); assay type: cell-based, Escherichia coli; details: peptide for 10 min, then fresh medium, FIG. 15E
P. aeruginosa [8] = assay: as above; details: peptide for 10 min, then fresh medium, FIG. 15B
S. aureus = assay: as above; assay type: cell-based, Staphylococcus aureus; details: peptide for 10 min, then fresh medium, FIG. 15D
S. epidermidis [9] = assay: as above; details: peptide for 10 min, then fresh medium, FIG. 15C
Experimental: as §3, §4

bacteria = assay: Bacterial binding of blank peptide (data not shown)
S. mutans [10] = assay: Growth phenotype or other activity induced by peptide (Table 9); assay type: cell-based
target microorganisms = assay: Screen of synthesized peptides for binding to target microorganisms (targeting peptides, Tables 2 and 3); details: microorganism(s) the targeting peptide was identified as binding to (Table 3)
Experimental: Once noted, these peptides were batch synthesized on a multiplex peptide synthesizer, yielding 5-10 mg of each peptide that could readily be screened for biological activity (e.g., binding activity and/or antimicrobial activity.
Other suitable targeting peptides include the peptides that have been identified as binding to particular target organisms as shown in Table 3 and/or Table 4.

[11] = Library 2 STAMPs, all S. mutans isolates tested, minimum of three independent trials

Compound: FHFHLHFAGAFIKHFIHRF-NH2 [135(L13)2_1, FHFHLHFAGAFIKHFIHRF]
- S. mutans (MIC) (S. mutans [1]): 32 µg/mL

Compound: FHFHLHFGSGSGFIKHFIHRF-NH2 [135(L12)2_1]
- S. mutans (MIC) (S. mutans [1]; [11]): 32 µg/mL

Compound: FHFHLHFGGGFIKHFIHRF-NH2 [135(L1)2_1, FHFHLHFGGGFIKHFIHRF]
- S. mutans (MIC) (S. mutans [1]): 16 µg/mL
- concentration active against S. mutans (MIC) (S. mutans [1]): lower than 100 μg/mL

Compound: CC[C@H](C)[C@H](NC(=O)[C@H](Cc1ccccc1)NC(=O)CCCCCCCNC(=O)[C@H](Cc1ccccc1)NC(=O)[C@H](Cc1c[nH]cn1)NC(=O)[C@H](CC(C)C)NC(=O)[C@H](Cc1c[nH]cn1)NC(=O)[C@H](Cc1ccccc1)NC(=O)[C@H](Cc1c[nH]cn1)NC(=O)[C@@H](N)Cc1ccccc1)C(=O)N[C@@H](CCCCN)C(=O)N[C@@H](Cc1c[nH]cn1)C(=O)N[C@@H](Cc1ccccc1)C(=O)N[C@H](C(=O)N[C@@H](Cc1c[nH]cn1)C(=O)N[C@@H](CCCNC(=N)N)C(=O)N[C@@H](Cc1ccccc1)C(N)=O)[C@@H](C)CC [135(LC)2_1, FHFHLHF-[NH(CH2)7CO]-FIKHFIHRF] (HELM PEPTIDE1{F.H.F.H.L.H.F.[O=C(CCCCCCCN[*:1])[*:2]].F.I.K.H.F.I.H.R.F.[am]}$$$$V2.0; N-terminus assumed)
- S. mutans (MIC) (S. mutans [1]): 64 µg/mL

Compound: CC[C@H](C)[C@H](NC(=O)[C@H](Cc1ccccc1)NC(=O)CCCCCCCNC(=O)[C@H](CCCCNC(=O)CNC(=O)CNC(=O)CNC(=O)[C@H](Cc1c[nH]cn1)NC(=O)[C@H](CCCCN)NC(=O)[C@H](CCCNC(=N)N)NC(=O)[C@H](Cc1c[nH]cn1)NC(=O)[C@H](CCCCN)NC(=O)[C@H](CCCNC(=N)N)NC(=O)[C@H](Cc1c[nH]cn1)NC(=O)[C@H](CCCCN)NC(=O)[C@H](CCCNC(=N)N)NC(=O)[C@H](Cc1c[nH]cn1)NC(=O)[C@H](CCCCN)NC(=O)[C@@H](N)CCCCN)NC(=O)CNC(=O)CNC(=O)CNC(=O)[C@H](C)NC(=O)[C@H](CCC(=O)O)NC(=O)[C@H](CC(N)=O)NC(=O)[C@H](C)NC(=O)[C@H](C)NC(=O)[C@H](CC(=O)O)NC(C)=O)C(=O)N[C@@H](CCCNC(=N)N)C(=O)N[C@@H](CCCCN)C(=O)N[C@@H](Cc1ccccc1)C(=O)N[C@@H](CC(C)C)C(=O)N[C@@H](CCCCN)C(=O)N[C@@H](CCCCN)C(=O)N[C@@H](Cc1c[nH]c2ccccc12)C(=O)N[C@@H](CC(C)C)C(=O)N[C@@H](CC(C)C)C(N)=O [BL(KH)-20] (HELM PEPTIDE1{[ac].D.A.A.N.E.A.G.G.G.K.[O=C(CCCCCCCN[*:1])[*:2]].F.I.R.K.F.L.K.K.W.L.L.[am]}|PEPTIDE2{K.K.H.R.K.H.R.K.H.R.K.H.G.G.G}$PEPTIDE1,PEPTIDE2,11:R3-15:R2$$$V2.0)
- recoverable S. mutans cfu/mL in mixed culture (in words) (S. mutans [2]): higher than input cfu/mL
- recoverable S. epidermidis cfu/mL in mixed culture (in words) (S. epidermidis [3]): unchanged numbers
- recoverable E. coli cfu/mL in mixed culture (in words) (E. coli [4]): unchanged numbers
- recoverable P. aeruginosa cfu/mL in mixed culture (in words) (P. aeruginosa [5]): not observed
- S. mutans growth after treatment (culture recovery, OD600) (S. mutans [6]): not altered

Compound: WWQDWWNEW [1_6]
- binding to S. mutans biofilms (S. mutans biofilms): retain biofilm binding

Compound: WWKDWWERW [1_4]
- binding to S. mutans biofilms (S. mutans biofilms): retain biofilm binding

Compound: WWSYWWTQW [1_3]
- binding to S. mutans biofilms (S. mutans biofilms): retain biofilm binding

Compound: WWHSWWSTW [1_2]
- binding to S. mutans biofilms (S. mutans biofilms): retain biofilm binding

Compound: Ac-FHFHLHFGGGFIKHFIHRF-NH2 [Ac135(L1)2_1, Ac-FHFHLHFGGGFIKHFIHRF]
- S. mutans (MIC) (S. mutans [1]): 32 µg/mL

Compound: FHFHLHFGGGGGFIKHFIHRF-NH2 [135(G5)2_1]
- S. mutans (MIC) (S. mutans [1]): 16 µg/mL

Compound: FIRKFLKKWLL-NH2 [BD2.20, FIRKFLKKWLL]
- E. coli growth after treatment (culture recovery, OD600) (E. coli [7]): inhibited
- P. aeruginosa growth after treatment (culture recovery, OD600) (P. aeruginosa [8]): robust antimicrobial activity
- S. aureus growth after treatment (culture recovery, OD600) (S. aureus): inhibited
- recoverable S. mutans cfu/mL in mixed culture (in words) (S. mutans [2]): significant loss of recoverable cfu/mL
- recoverable S. epidermidis cfu/mL in mixed culture (in words) (S. epidermidis [3]): significant loss of recoverable cfu/mL
- recoverable E. coli cfu/mL in mixed culture (in words) (E. coli [4]): significant loss of recoverable cfu/mL
- S. epidermidis growth after treatment (culture recovery, OD600) (S. epidermidis [9]): inhibited
- recoverable P. aeruginosa cfu/mL in mixed culture (in words) (P. aeruginosa [5]): significant loss of recoverable cfu/mL
- S. mutans growth after treatment (culture recovery, OD600) (S. mutans [6]): robust antimicrobial activity

Compound: FHFHLHFAAAFIKHFIHRF-NH2 [135(L2)2_1, FHFHLHFAAAFIKHFIHRF]
- S. mutans (MIC) (S. mutans [1]): 16 µg/mL

Compound: FHFHLHFSGSFIKHFIHRF-NH2 [135(L11)2_1, FHFHLHFSGSFIKHFIHRF]
- S. mutans (MIC) (S. mutans [1]; [11]): 32 µg/mL

Compound: FHFHLHFGAGAGFIKHFIHRF-NH2 [135(L14)2_1]
- S. mutans (MIC) (S. mutans [1]): 32 µg/mL

Compound: CC[C@H](C)[C@H](NC(=O)[C@H](Cc1ccccc1)NC(=O)CNC(=O)CNC(=O)CNC(=O)[C@H](Cc1ccccc1)NC(=O)[C@H](Cc1c[nH]cn1)NC(=O)[C@H](CC(C)C)NC(=O)[C@H](Cc1c[nH]cn1)NC(=O)[C@H](Cc1ccccc1)NC(=O)[C@H](Cc1c[nH]cn1)NC(=O)[C@H](Cc1ccccc1)NC(=O)c1ccccc1)C(=O)N[C@@H](CCCCN)C(=O)N[C@@H](Cc1c[nH]cn1)C(=O)N[C@@H](Cc1ccccc1)C(=O)N[C@H](C(=O)N[C@@H](Cc1c[nH]cn1)C(=O)N[C@@H](CCCNC(=N)N)C(=O)N[C@@H](Cc1ccccc1)C(N)=O)[C@@H](C)CC [bz135(L1)2_1, benzoate-FHFHLHFGGGFIKHFIHRF] (HELM PEPTIDE1{[O=C(c1ccccc1)[*:2]].F.H.F.H.L.H.F.G.G.G.F.I.K.H.F.I.H.R.F.[am]}$$$$V2.0)
- S. mutans (MIC) (S. mutans [1]; [11]): 32 µg/mL

Compound: FHFHLHF (not fully specified (C-terminus)) [PL-135]
- activity against S. mutans relative to progeny STAMPs (S. mutans [1]; FIG. 17 and Table 16): 2 to 4 fold

Compound: FHFHLHFGGGGGGFIKHFIHRF-NH2 [135(G6)2_1]
- S. mutans (MIC) (S. mutans [1]): 32 µg/mL

Compound: FIKHFIHRF [2_1]
- binding to S. mutans biofilms (S. mutans biofilms): retain biofilm binding

Compound: FHFHLHFGGGGFIKHFIHRF-NH2 [135(G4)2_1]
- S. mutans (MIC) (S. mutans [1]): 16 µg/mL

Compound: FHLHFHFGGGFRHIFHKIF-NH2 [135i(L1)2_1i, FHLHFHFGGGFRHIFHKIF]
- S. mutans (MIC) (S. mutans [1]): 16 µg/mL

Compound: FHFHLHFGGGGGGGFIKHFIHRF-NH2 [135(G7)2_1]
- S. mutans (MIC) (S. mutans [1]): 32 µg/mL

Compound: DAANEA-GGG (DAANEAGGG; synthetic BL-1 peptide with no bacterial binding)
- bacterial binding (bacteria): no bacterial binding

Compound: EIPIQLANDLANYYDISLDSIFFW [G-4]
- Organism, effect (S. mutans) (S. mutans [10]): Biofilm structure

Compound: FRHIFHKIFGGGFHLHFHF-NH2 [2_1i(L1)135i, FRHIFHKIFGGGFHLHFHF]
- S. mutans (MIC) (S. mutans [1]): 16 µg/mL

Compound: LIKHILHRL [3_1]
- binding to S. mutans biofilms (S. mutans biofilms): retain biofilm binding

Compound: 1T-83 (QKPRKNETFIGYIQRYDIDGNGYQSLPCPQN; synthetic novel tartgeting peptide IT-83)
- Target(s) (target microorganisms): S. pneumoniae

Compound: 1T-143 (MPKRHYYKLEAKALQFGLPFAYSPIQLLK; synthetic novel tartgeting peptide IT-143)
- Target(s) (target microorganisms): A. naeslundii, F. nucleatum,; also recorded: P. gingivalis; also recorded: S. epidermidis,; also recorded: S. gordonii, S. mitis, S. mutans,; also recorded: S. oralis, S. salivarious,; also recorded: S. sanguinis

Compound: 1T-66 (DTDCLSRAYAQRIDELDKQYAGIDKPL; synthetic novel tartgeting peptide IT-66)
- Target(s) (target microorganisms): S. mutans; also recorded: S. aureus; also recorded: S. epidermidis; also recorded: C. jeikeium; also recorded: C. xerosis; also recorded: C. striatum; also recorded: P. aeruginosa
